The text below walks through data of patent publication US7141553B2, “A3AR agonists for the treatment of inflammatory arthritis” (Can-Fite Biopharma Ltd. Israel, priority 2002, dated 2006).

The assay concerns adjuvant induced arthritis. The experiment in a line: Adjuvant arthritis model in Lewis rats. In kind it is in vivo, rat.

Regarding `CNC(=O)[C@H]1O[C@@H](n2cnc3c(NCc4cccc(I)c4)nc(Cl)nc32)[C@H](O)[C@@H]1O` [Cl-IB-MECA, 2-chloro-N^6-(3-iodobenzyl)-adenosine-5′-N-methyl-uronamide], the appearance of paws entry (10 μg/kg a day PO, untreated rat paws extremely swollen and red) is “normal appearing paws”. For the same molecule, the “improvement of arthritis score, 10 μg a day compared with 100 μg/kg a day” value (PO, from day 7 after disease induction, FIG. 4) was “significantly more effective”.
